Data taken from ChEMBL document CHEMBL1201862, “PubChem BioAssay data set” (2004).
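96-well plates; 48 h exposure; 5 concentrations. Endpoints by linear interpolation between flanking doses. Not reached: highest tested concentration assigned. At the GI50, growth is halved.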 Active and inactive are the calls of the source. Rule as the data show it: active = GI50 up to about 1.1 µM and inactive = higher.

Assays:
Assay in all cases: NCI anticancer screen, dose series, 48 h
786-0 = test system: 786-0
NCI-H23 = test system: NCI-H23
A498 = test system: A498
K562 = test system: K562
COLO 205 = test system: COLO 205
OVCAR-3 = test system: OVCAR-3
NCI-H226 = test system: NCI-H226
SF-539 = test system: SF-539
NCI-H460 = test system: NCI-H460
RXF 393 = test system: RXF 393
KM-20L2 = test system: KM-20L2
MOLT-4 = test system: MOLT-4
SK-MEL-5 = test system: SK-MEL-5
OVCAR-5 = test system: OVCAR-5
HCT-116 = test system: HCT-116
SNB-19 = test system: SNB-19
LOX IMVI = test system: LOX IMVI
EKVX = test system: EKVX

Measured: GI50

NNC(=O)CCC(=O)Nc1ccc(Cl)cc1Cl
inactive: 786-0 > 100 µM | NCI-H23 > 100 µM | A498 > 100 µM | K562 19.1 µM | COLO 205 > 100 µM | OVCAR-3 > 100 µM | NCI-H226 > 100 µM | SF-539 > 100 µM | NCI-H460 > 100 µM | RXF 393 > 100 µM | KM-20L2 > 100 µM | MOLT-4 > 100 µM | SK-MEL-5 > 100 µM | OVCAR-5 > 100 µM | HCT-116 > 100 µM | SNB-19 > 100 µM | LOX IMVI 43.8 µM

O=[N+]([O-])c1cccc(/C=N\NS(=O)(=O)c2ccc(Cl)cc2)c1O
inactive: 786-0 > 100 µM | NCI-H23 44.3 µM | A498 > 100 µM | K562 60.1 µM | COLO 205 69.8 µM | OVCAR-3 65.8 µM | SF-539 54.2 µM | NCI-H460 82.8 µM | EKVX > 100 µM | RXF 393 37.8 µM | KM-20L2 > 100 µM | MOLT-4 47.5 µM | SK-MEL-5 73.1 µM | OVCAR-5 > 100 µM | HCT-116 50.4 µM | SNB-19 > 100 µM | LOX IMVI > 100 µM

O=C(c1ccccc1)[C@H]1Nc2cnccc2C2c3ccccc3CC21 (stereo not given in full)
inactive: 786-0 12.8 µM | NCI-H23 8.51 µM | A498 25.9 µM | K562 3.14 µM | COLO 205 19.8 µM | OVCAR-3 7.69 µM | NCI-H226 4.26 µM | SF-539 15.7 µM | NCI-H460 15.1 µM | EKVX 19.9 µM | RXF 393 14.8 µM | KM-20L2 21.2 µM | MOLT-4 2.99 µM | SK-MEL-5 3.31 µM | OVCAR-5 28.4 µM | HCT-116 3.81 µM | SNB-19 26.7 µM | LOX IMVI 1.57 µM

CC(=O)OC(OC(C)=O)c1ncccc1C(=O)OC(C)C
inactive: 786-0 > 100 µM | NCI-H23 56.1 µM | A498 > 100 µM | K562 18.9 µM | COLO 205 47.4 µM | OVCAR-3 > 100 µM | NCI-H226 > 100 µM | SF-539 56 µM | NCI-H460 11.3 µM | EKVX > 100 µM | RXF 393 39.8 µM | KM-20L2 39.6 µM | MOLT-4 35.1 µM | SK-MEL-5 38.2 µM | OVCAR-5 > 100 µM | HCT-116 57.8 µM | SNB-19 > 100 µM | LOX IMVI 20.9 µM

O=CC1CCCc2ccccc21 (stereo not given)
inactive: 786-0 > 100 µM | NCI-H23 > 100 µM | A498 > 100 µM | K562 > 60 µM | COLO 205 > 42.7 µM | OVCAR-3 > 100 µM | NCI-H226 > 100 µM | NCI-H460 > 61.8 µM | EKVX > 100 µM | RXF 393 > 100 µM | KM-20L2 > 100 µM | MOLT-4 > 100 µM | SK-MEL-5 > 100 µM | OVCAR-5 > 100 µM | HCT-116 > 50.1 µM | SNB-19 > 100 µM | LOX IMVI > 44.1 µM

CN(C)C1=NC2=S(SC(Nc3ccccc3)=N2)S1 (stereo not given)
inactive: 786-0 28.8 µM | NCI-H23 28.2 µM | A498 14.6 µM | K562 6.62 µM | NCI-H226 22.2 µM | SF-539 20.2 µM | NCI-H460 36.1 µM | EKVX 12.9 µM | RXF 393 32 µM | KM-20L2 32.9 µM | MOLT-4 10.3 µM | SK-MEL-5 5.87 µM | OVCAR-5 34.8 µM | HCT-116 10.5 µM | SNB-19 26.3 µM | LOX IMVI 22.7 µM

N#CCCN(c1ccc(/C=C2\N=C(Cc3ccccc3)OC2=O)cc1)S(=O)(=O)c1ccccc1
inactive: 786-0 > 100 µM | NCI-H23 > 100 µM | A498 > 100 µM | K562 > 100 µM | COLO 205 > 100 µM | OVCAR-3 > 100 µM | NCI-H226 > 100 µM | SF-539 > 100 µM | NCI-H460 > 100 µM | EKVX > 100 µM | RXF 393 > 100 µM | KM-20L2 > 100 µM | MOLT-4 > 100 µM | SK-MEL-5 > 100 µM | OVCAR-5 > 100 µM | HCT-116 > 100 µM | SNB-19 > 100 µM | LOX IMVI > 100 µM

CC1CCC2c3c([nH]c4ccccc34)C3C(=O)N(c4ccccc4)C(=O)C3C2C1 (stereo not given)
inactive: 786-0 13.3 µM | NCI-H23 34.4 µM | A498 43.8 µM | K562 46.8 µM | COLO 205 > 100 µM | OVCAR-3 49.8 µM | NCI-H226 32.1 µM | SF-539 6.64 µM | NCI-H460 > 250 µM | EKVX > 250 µM | RXF 393 12.2 µM | KM-20L2 > 250 µM | MOLT-4 25.4 µM | SK-MEL-5 > 100 µM | OVCAR-5 > 100 µM | HCT-116 80.2 µM | SNB-19 32.6 µM | LOX IMVI 42.8 µM

C/C(=N\N(C)C)c1sc(-n2nc(-c3ccccc3)cc2-c2ccccc2)nc1C
inactive: 786-0 > 100 µM | NCI-H23 > 100 µM | A498 > 100 µM | K562 > 100 µM | COLO 205 > 100 µM | OVCAR-3 47.9 µM | NCI-H226 > 100 µM | SF-539 > 100 µM | NCI-H460 > 100 µM | EKVX 8.22 µM | RXF 393 > 100 µM | KM-20L2 > 100 µM | MOLT-4 84.3 µM | SK-MEL-5 > 100 µM | OVCAR-5 21 µM | HCT-116 > 100 µM | SNB-19 > 100 µM | LOX IMVI 16.3 µM

COc1ccc(-n2/c(=N/C(=S)N(C)C)ss/c2=N\C(=S)N(C)C)cc1
inactive: 786-0 32.7 µM | NCI-H23 39.4 µM | A498 > 100 µM | K562 11.6 µM | COLO 205 48 µM | OVCAR-3 19.8 µM | NCI-H226 > 100 µM | SF-539 52.2 µM | NCI-H460 2.98 µM | EKVX > 100 µM | RXF 393 29.6 µM | KM-20L2 27.7 µM | MOLT-4 79.4 µM | OVCAR-5 > 100 µM | HCT-116 13 µM | SNB-19 11.6 µM | LOX IMVI > 100 µM

CC(=O)Nc1ccc(/C=C/C(=O)c2sc(-c3cccnc3)nc2C)cc1
inactive: 786-0 > 100 µM | NCI-H23 > 100 µM | A498 > 100 µM | K562 > 100 µM | COLO 205 > 100 µM | OVCAR-3 > 100 µM | NCI-H226 > 100 µM | SF-539 > 100 µM | NCI-H460 > 100 µM | EKVX > 100 µM | RXF 393 > 100 µM | KM-20L2 > 100 µM | MOLT-4 > 100 µM | SK-MEL-5 > 100 µM | OVCAR-5 > 100 µM | LOX IMVI > 100 µM
